From paper PMC7801264, “Farnesyl Transferase Inhibitor Lonafarnib Enhances α7nAChR Expression Through Inhibiting DNA Methylation of CHRNA7 and Increases α7nAChR Membrane Trafficking” (Frontiers in Pharmacology, 2020)

Target: T1, α7 nicotinic acetylcholine receptor (α7nAChR) (Mus musculus, UniProt P49582)
T1 construct: gene Chrna7; native receptor in hippocampal CA1 pyramidal cells (brain slices)
Assay: whole cell patch-clamp of ACh-evoked inward current in mouse hippocampal slices, dose-response

T1 sequence (P49582 23-502): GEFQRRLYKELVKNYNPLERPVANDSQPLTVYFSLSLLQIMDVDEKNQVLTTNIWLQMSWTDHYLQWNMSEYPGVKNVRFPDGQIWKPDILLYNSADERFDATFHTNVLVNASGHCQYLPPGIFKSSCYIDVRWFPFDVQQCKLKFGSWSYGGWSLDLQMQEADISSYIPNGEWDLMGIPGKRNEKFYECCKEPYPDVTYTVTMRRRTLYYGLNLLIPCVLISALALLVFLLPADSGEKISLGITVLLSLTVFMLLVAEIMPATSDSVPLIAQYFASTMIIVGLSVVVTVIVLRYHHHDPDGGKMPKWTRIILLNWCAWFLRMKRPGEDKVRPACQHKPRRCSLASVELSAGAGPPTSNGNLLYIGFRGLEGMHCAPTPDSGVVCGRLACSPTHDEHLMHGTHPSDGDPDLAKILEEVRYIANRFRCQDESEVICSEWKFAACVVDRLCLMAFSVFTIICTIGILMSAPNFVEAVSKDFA

With `CC(=O)OCC[N+](C)(C)C` [acetylcholine] the EC50 was 431 µM.
